Results as given in patent US11034718B2, “C-3 novel triterpenone with C-17 reverse amide derivatives as HIV inhibitors” (HETERO LABS LIMITED, priority 2015, dated 2021).
Like-named read-outs stand apart in the source and are kept apart here.

Legend:
Format in all cases: cell-based
HIV-1 strain 92HT599 = experiment: Antiviral activity against HIV-1 strain 92HT599 in MT2 cells (p24 estimation); conditions: HIV-1 92HT599, ~96 hours
In short: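 Percent inhibition versus vehicle controls came from p24 quantified in supernatant aliquots. These were taken after ~96 h incubation of compound (DMSO ≤1%) with MT2 cells infected at 10 TCID50/30,000 cells.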

HIV-1 pNL4-3 WT = experiment: Antiviral activity against pNL4-3/WT strain in MT4 cells (p24 estimation); conditions: Human immunodeficiency virus 1, MT4, 96 h, read-out: pNL4-3 WT IC50
In short: (§1)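 MT4 cells infected with HIV-1 pNL4-3 WT or V7A (defined TCID50, 1.5 h, 37° C), plated at 3×10^4 cells/well with test compound, final DMSO ≤1%. After 4 days' culture, p24 in supernatant aliquots measured by kit.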

HIV-1 pNL4-3 V7A = experiment: Antiviral activity against pNL4-3/V7A strain in MT4 cells (p24 estimation); conditions: Human immunodeficiency virus 1, MT4, 96 h, read-out: pNL4-3 V7A IC50
In short: as §1

[1] = Human immunodeficiency virus 1, 0% serum binding assay, read-out: IC50 0% serum
[2] = Human immunodeficiency virus 1, 40% serum binding assay, read-out: IC50 40% serum

For `Cc1ccc(C(=O)NC2(C(=O)N[C@@]34CC[C@]5(C)[C@H](CC[C@@H]6[C@@]7(C)CC[C@H](OC(=O)[C@H]8C[C@@H](C(=O)O)C8(C)C)C(C)(C)[C@@H]7CC[C@]65C)C3=C(C(C)C)C(=O)C4)CC2)cc1` [Example 40, (1R,3S)-3-((((3aR,5aR,5bR,7aR,9S,11aR,11bR,13aS)-1-isopropyl-5a,5b,8,8,11a-pentamethyl-3a-(1-(4-methylbenzamido)cyclopropane-1-carboxamido)-2-oxo-3,3a,4,5,5a,5b,6,7,7a,8,9,10,11,11a,11b,12,13,13a-octadecahydro-2H-cyclopenta[a]chrysen-9-yl)oxy)carbonyl)-2,2-dimethylcyclobutane-1-carboxylic acid], the IC50 (HIV-1 strain 92HT599; [1]) was under 3 nM, the IC50 (HIV-1 strain 92HT599; [2]) was under 50 nM and the IC50 (HIV-1 pNL4-3 WT) was under 5 nM. It also gave an IC50 (HIV-1 pNL4-3 V7A) of under 10 nM.

`CC(C)C1=C2[C@H]3CC[C@@H]4[C@@]5(C)CC[C@H](OC(=O)[C@@H]6C[C@H](C(=O)O)C6(C)C)C(C)(C)[C@@H]5CC[C@@]4(C)[C@]3(C)CC[C@@]2(NC(=O)C2(NC(=O)c3ccc(Cl)cc3)CC2)CC1=O` [Example 41, (1S,3R)-3-((((3aR,5aR,5bR,7aR,9S,11aR,11bR,13aS)-3a-(1-(4-chlorobenzamido)cyclopropane-1-carboxamido)-1-isopropyl-5a,5b,8,8,11a-pentamethyl-2-oxo-3,3a,4,5,5a,5b,6,7,7a,8,9,10,11,11a,11b,12,13,13a-octadecahydro-2H-cyclopenta[a]chrysen-9-yl)oxy)carbonyl)-2,2-dimethylcyclobutane-1-carboxylic acid] was tested, and the IC50 (HIV-1 strain 92HT599; [1]) was under 3 nM, the IC50 (HIV-1 strain 92HT599; [2]) was under 50 nM and the IC50 (HIV-1 pNL4-3 WT) was over 10 nM. It also gave an IC50 (HIV-1 pNL4-3 V7A) of 10 to 50 nM.

`CC(C)C1=C2[C@H]3CC[C@@H]4[C@@]5(C)CC[C@H](OC(=O)[C@H]6C[C@@H](C(=O)O)C6(C)C)C(C)(C)[C@@H]5CC[C@@]4(C)[C@]3(C)CC[C@@]2(NC(=O)C2(NC(=O)c3ccc(Cl)cc3)CCC2)CC1=O` [Example 42, (1R,3S)-3-((((3aR,5aR,5bR,7aR,9S,11aR,11bR,13aS)-3a-(1-(4-chlorobenzamido)cyclobutane-1-carboxamido)-1-isopropyl-5a,5b,8,8,11a-pentamethyl-2-oxo-3,3a,4,5,5a,5b,6,7,7a,8,9,10,11,11a,11b,12,13,13a-octadecahydro-2H-cyclopenta[a]chrysen-9-yl)oxy)carbonyl)-2,2-dimethylcyclobutane-1-carboxylic acid] was tested, and the IC50 (HIV-1 strain 92HT599; [1]) was under 3 nM, the IC50 (HIV-1 strain 92HT599; [2]) was under 50 nM and the IC50 (HIV-1 pNL4-3 WT) was 5.01 to 10 nM. The IC50 (HIV-1 pNL4-3 V7A) was under 10 nM.

Compound `CC(C)C1=C2[C@H]3CC[C@@H]4[C@@]5(C)CC[C@H](OC(=O)[C@H]6C[C@@H](C(=O)O)C6(C)C)C(C)(C)[C@@H]5CC[C@@]4(C)[C@]3(C)CC[C@@]2(NC(=O)C2(NC(=O)c3ncccn3)CCC2)CC1=O` [Example 44, (1R,3S)-3-((((3aR,5aR,5bR,7aR,9S,11aR,11bR,13aS)-1-isopropyl-5a,5b,8,8,11a-pentamethyl-2-oxo-3a-(1-(pyrimidine-2-carboxamido)cyclobutane-1-carboxamido)-3,3a,4,5,5a,5b,6,7,7a,8,9,10,11,11a,11b,12,13,13a-octadecahydro-2H-cyclopenta[a]chrysen-9-yl)oxy)carbonyl)-2,2-dimethylcyclobutane-1-carboxylic acid] has an IC50 (HIV-1 strain 92HT599; [1]) of under 3 nM, an IC50 (HIV-1 strain 92HT599; [2]) of 50 to 200 nM and an IC50 (HIV-1 pNL4-3 WT) of over 10 nM. For the same compound, the IC50 (HIV-1 pNL4-3 V7A) was over 50 nM.

With `CC(C)C1=C2[C@H]3CC[C@@H]4[C@@]5(C)CC[C@H](OC(=O)[C@H]6C[C@@H](C(=O)O)C6(C)C)C(C)(C)[C@@H]5CC[C@@]4(C)[C@]3(C)CC[C@@]2(NC(=O)C2(NC(=O)c3cccnc3N3CCOCC3)CCC2)CC1=O` [Example 45, (1R,3S)-3-((((3aR,5aR,5bR,7aR,9S,11aR,11bR,13aS)-1-isopropyl-5a,5b,8,8,11a-pentamethyl-3a-(1-(2-morpholinonicotinamido)cyclobutane-1-carboxamido)-2-oxo-3,3a,4,5,5a,5b,6,7,7a,8,9,10,11,11a,11b,12,13,13a-octadecahydro-2H-cyclopenta[a]chrysen-9-yl)oxy)carbonyl)-2,2-dimethylcyclobutane-1-carboxylic acid] the IC50 (HIV-1 strain 92HT599; [1]) was 3.01 to 10 nM, the IC50 (HIV-1 strain 92HT599; [2]) was under 50 nM and the IC50 (HIV-1 pNL4-3 WT) was under 5 nM. The IC50 (HIV-1 pNL4-3 V7A) was 10 to 50 nM.

Work on `Cc1ccc(C(=O)NC2(C(=O)N[C@@]34CC[C@]5(C)[C@H](CC[C@@H]6[C@@]7(C)CC[C@H](OC(=O)[C@H]8C[C@@H](C(=O)O)C8(C)C)C(C)(C)[C@@H]7CC[C@]65C)C3=C(C(C)C)C(=O)C4)CCCC2)cn1` [Example 47, (1R,3S)-3-((((3aR,5aR,5bR,7aR,9S,11aR,11bR,13aS)-1-isopropyl-5a,5b,8,8,11a-pentamethyl-3a-(1-(6-methylnicotinamido)cyclopentane-1-carboxamido)-2-oxo-3,3a,4,5,5a,5b,6,7,7a,8,9,10,11,11a,11b,12,13,13a-octadecahydro-2H-cyclopenta[a]chrysen-9-yl)oxy)carbonyl)-2,2-dimethylcyclobutane-1-carboxylic acid] yielded an IC50 (HIV-1 strain 92HT599; [1]) of under 3 nM, an IC50 (HIV-1 strain 92HT599; [2]) of under 50 nM and an IC50 (HIV-1 pNL4-3 WT) of under 5 nM. The IC50 (HIV-1 pNL4-3 V7A) was under 10 nM.

With `CC(C)C1=C2[C@H]3CC[C@@H]4[C@@]5(C)CC[C@H](OC(=O)[C@H]6C[C@@H](C(=O)O)C6(C)C)C(C)(C)[C@@H]5CC[C@@]4(C)[C@]3(C)CC[C@@]2(NC(=O)C(C)(C)NC(=O)c2ccc(S(C)(=O)=O)cc2)CC1=O` [Example 51, (1R,3S)-3-((((3aR,5aR,5bR,7aR,9S,11aR,11bR,13aS)-1-isopropyl-5a,5b,8,8,11a-pentamethyl-3a-(2-methyl-2-(4-(methylsulfonyl)benzamido)propanamido)-2-oxo-3,3a,4,5,5a,5b,6,7,7a,8,9,10,11,11a,11b,12,13,13a-octadecahydro-2H-cyclopenta[a]chrysen-9-yl)oxy)carbonyl)-2,2-dimethylcyclobutane-1-carboxylic acid] the IC50 (HIV-1 strain 92HT599; [1]) was under 3 nM, the IC50 (HIV-1 strain 92HT599; [2]) was under 50 nM and the IC50 (HIV-1 pNL4-3 WT) was 5.01 to 10 nM. The IC50 (HIV-1 pNL4-3 V7A) was over 50 nM.

For `CC(C)C1=C2[C@H]3CC[C@@H]4[C@@]5(C)CC[C@H](OC(=O)[C@H]6C[C@@H](C(=O)O)C6(C)C)C(C)(C)[C@@H]5CC[C@@]4(C)[C@]3(C)CC[C@@]2(NC(=O)C(C)(C)NC(=O)Cc2ccc(Cl)cc2)CC1=O` [Example 53, (1R,3S)-3-((((3aR,5aR,5bR,7aR,9S,11aR,11bR,13aS)-3a-(2-(2-(4-chlorophenyl)acetamido)-2-methylpropanamido)-1-isopropyl-5a,5b,8,8,11a-pentamethyl-2-oxo-3,3a,4,5,5a,5b,6,7,7a,8,9,10,11,11a,11b,12,13,13a-octadecahydro-2H-cyclopenta[a]chrysen-9-yl)oxy)carbonyl)-2,2-dimethylcyclobutane-1-carboxylic acid], the IC50 (HIV-1 strain 92HT599; [1]) was under 3 nM, the IC50 (HIV-1 strain 92HT599; [2]) was under 50 nM and the IC50 (HIV-1 pNL4-3 WT) was under 5 nM. The IC50 (HIV-1 pNL4-3 V7A) was under 10 nM.

Compound `CC(C)C1=C2[C@H]3CC[C@@H]4[C@@]5(C)CC[C@H](OC(=O)[C@H]6C[C@@H](C(=O)O)C6(C)C)C(C)(C)[C@@H]5CC[C@@]4(C)[C@]3(C)CC[C@@]2(NC(=O)C(C)(C)NC(=O)c2cnn3cccnc23)CC1=O` [Example 54, (1R,3S)-3-((((3aR,5aR,5bR,7aR,9S,11aR,11bR,13aS)-1-isopropyl-5a,5b,8,8,11a-pentamethyl-3a-(2-methyl-2-(pyrazolo[1,5-a]pyrimidine-3-carboxamido)propanamido)-2-oxo-3,3a,4,5,5a,5b,6,7,7a,8,9,10,11,11a,11b,12,13,13a-octadecahydro-2H-cyclopenta[a]chrysen-9-yl)oxy)carbonyl)-2,2-dimethylcyclobutane-1-carboxylic acid] has an IC50 (HIV-1 strain 92HT599; [1]) of under 3 nM, an IC50 (HIV-1 strain 92HT599; [2]) of under 50 nM and an IC50 (HIV-1 pNL4-3 WT) of under 5 nM. It also gave an IC50 (HIV-1 pNL4-3 V7A) of 10 to 50 nM.

`CC(C)C1=C2[C@H]3CC[C@@H]4[C@@]5(C)CC[C@H](OC(=O)[C@H]6C[C@@H](C(=O)O)C6(C)C)C(C)(C)[C@@H]5CC[C@@]4(C)[C@]3(C)CC[C@@]2(NC(=O)C(C)(C)NC(=O)c2csc(N)n2)CC1=O` [Example 55, (1R,3S)-3-((((3aR,5aR,5bR,7aR,9S,11aR,11bR,13aS)-3a-(2-(2-aminothiazole-4-carboxamido)-2-methylpropanamido)-1-isopropyl-5a,5b,8,8,11a-pentamethyl-2-oxo-3,3a,4,5,5a,5b,6,7,7a,8,9,10,11,11a,11b,12,13,13a-octadecahydro-2H-cyclopenta[a]chrysen-9-yl)oxy)carbonyl)-2,2-dimethylcyclobutane-1-carboxylic acid] showed an IC50 (HIV-1 strain 92HT599; [1]) of 3.01 to 10 nM, an IC50 (HIV-1 strain 92HT599; [2]) of 50 to 200 nM and an IC50 (HIV-1 pNL4-3 WT) of over 10 nM. For the same compound, the IC50 (HIV-1 pNL4-3 V7A) was over 50 nM.

In the case of `Cc1nnc(-c2ccc(C(=O)NC(C)(C)C(=O)N[C@@]34CC[C@]5(C)[C@H](CC[C@@H]6[C@@]7(C)CC[C@H](OC(=O)[C@H]8C[C@@H](C(=O)O)C8(C)C)C(C)(C)[C@@H]7CC[C@]65C)C3=C(C(C)C)C(=O)C4)cc2)o1` [Example 56, (1R,3S)-3-((((3aR,5aR,5bR,7aR,9S,11aR,11bR,13aS)-1-isopropyl-5a,5b,8,8,11a-pentamethyl-3a-(2-methyl-2-(4-(5-methyl-1,3,4-oxadiazol-2-yl)benzamido)propanamido)-2-oxo-3,3a,4,5,5a,5b,6,7,7a,8,9,10,11,11a,11b,12,13,13a-octadecahydro-2H-cyclopenta[a]chrysen-9-yl)oxy)carbonyl)-2,2-dimethylcyclobutane-1-carboxylic acid], the IC50 (HIV-1 strain 92HT599; [1]) is reported as under 3 nM, the IC50 (HIV-1 strain 92HT599; [2]) is reported as under 50 nM and the IC50 (HIV-1 pNL4-3 WT) is reported as 5.01 to 10 nM. The IC50 (HIV-1 pNL4-3 V7A) was 10 to 50 nM.
